# From patent US6046177A, “Sulfoalkyl ether cyclodextrin based controlled release solid pharmaceutical formulations” (Cydex, Inc., priority 1999, dated 2000)
# What was measured:
# [1] = glibomuride-β-cyclodextrin complex vs. physical mixture; cited from earlier work
# [2] = In vitro release of methylprednisolone and SBE7 β-CD from tablets (USP apparatus II); assay type: physicochemical
# Description: The MP and SBE7 β-CD (present in a 1:7 molar ratio) along with a pharmaceutical carrier were compressed into a solid core which was spray coated with a mixture of ethylcellulose, PEG3350, PEG400 and ethanol to form a 140 μm thick film coating around the solid core. The dissolution profile was determined using USP dissolution apparatus II (100 rpm, 37° C.) and an HPLC assay for methylprednisolone (MP). […] The first formulation, indicated in FIG. 1 by the hollow circles, contains the separately preformed MP-SBE7 β CD freeze-dried complex. The second formulation, indicated by the filled in circles, contains a major portion of uncomplexed MP as a physical mixture with SBE7 β-CD. The third formulation, indicate by the squares, contains a physical mixture of lactose, fructose and MP.
# The tablet core was prepared with a 1/7 molar ratio of methylprednisolone/(SBE)7 -β-CD. This ratio was calculated using the previously determined binding constant in order to have sufficient (SBE)7 -β-CD in the tablet core to solubilize all the methylprednisolone present. […] The tablet core consisted of either the methylprednisolone-(SBE)7-β-CD complex or the physical mixture of the two compounds. The complex was prepared by freeze drying a methylprednisolone-(SBE)7 -β-CD solution (5-15% in (SBE)7-β-CD). Non (SBE)7 -β-CD containing tablets were also prepared. They consisted of a 1/7 ratio of methylprednisolone to a 50:50 (w/w) mixture of fructose and lactose (Fischer Scientific, N.J.). The mixtures were ground in a mortar and sieved through a 200 mesh (75 μm) screen under low humidity conditions. The mixtures were stored in a dessicator when not used. Tablets of around 150 mg were compressed into the dissolution die using a Carver Laboratory Press (Fred S. Carver Inc., N.J.) at 1 ton during 1 min.
# The coating formulation was prepared by mixing 4.5% of ethylcellulose (Ethocel Standard 10 Premium, Dow Chemicals, Mich.) with an equivalent amount of poly(ethylene glycol) 3350 (PEG 3350, Sigma, MO). 0.9% of PEG 400 (Sigma, MO) and 90.1% of absolute ethanol were added to the mixture. The dispersion was shaken and sonicated until complete dissolution of the solid components. The coating solution was air sprayed (Airbrush, Paasche) on a Teflon surface under constant air flow (40° C.). At the end of the spraying, the membranes were dried under the 40° C. air flow for 5 min. They were then left at room temperature during 24 hours. The membranes were peeled off the Teflon surface, checked for cracks and flaws under a light microscope (X70) and their thickness was measured using a micrometer (Ames, Mass.). The membranes were then secured on the dissolution die containing the tablet, with the face which was sprayed on the Teflon in contact with the tablet surface.
# The release studies were realized by placing the dissolution die in a USP dissolution apparatus II (Vanderkamp 600, VanKel Industries Inc.) containing 350 ml of water at 37° C., 100 rpm. Samples were collected at various time points. The 100% release was determined by removing the membrane from the die and allowing the drug dissolution to be complete.
# [3] = Release of methylprednisolone from tablets with […] RS/RL coating without pore forming agent (FIG. 15); assay type: physicochemical; settings: Eudragit RS:RL 9 to 1, approximately 5 wt.% coating
# Text: As previously mentioned, it is not required that a pharmaceutical formulation according to the invention comprise a coated core wherein the coat comprises a film forming agent and a pore forming agent. […] In this formulation, the coat comprises a combination of Eudragit™ RS and Eudragit™ RL in a 9 to 1 weight ratio and the coating on the core of the tablet comprises approximately 5 wt.% of the total weight of the tablet. Accordingly, the present invention also provides controlled release pharmaceutical formulations consisting essentially of a core surrounded by a coat which comprises a film forming agent wherein the coat controls the rate of delivery of the drug even absent a pore forming agent in the coating.
# The above formulation was prepared by first reducing the particle size of the SBE7 -βCD with a wedgewood mortar and pestle and then passing the powder through a 100 mesh screen. The sodium stearyl fumarate was also sieved through a 100 mesh screen prior to use. The SBE7 -βCD and MP were blended together geometrically in a glass mortar. The CEOLUS™, SUPERTAB™, PRUV™ components were then added in order in sequential steps while mixing. Tablets weighing approximately 250 mg each were compressed by hand on a Stokes B2 tablet press using 7 mm standard cup concave toolings. The tablets were compressed to a hardness of approximately 14 kp. […]
# [4] = In vitro release of testosterone from tablets (USP apparatus II); assay type: physicochemical; settings: 1:1 molar TST:SBE7 β-CD; sorbitol/PEG 400/cellulose acetate film; FIG. 8
# Description: (FIG. 8) The solid core of the tablet comprised a 1:1 molar ratio of TST and SBE7 β-CD. The film coating of this tablet comprised sorbitol, PEG 400 and cellulose acetate. The release profiles of the physical mixture and complex formulation were compared to that of a baseline TST/fructose-lactose formulation.
# The tablet core was prepared with a 1/1 molar ratio of testosterone/(SBE)7 -β-CD. The tablet core consisted of either the testosterone-(SBE)7 -β-CD complex or the physical mixture of the two compounds. The complex was prepared by freeze-drying a testosterone-(SBE)7 -β-CD solution (5-15% in (SBE)7m -β-CD). Non (SBE)7 -β-CD containing tablets were also prepared. […]
# Semi-permeable Membrane Preparation The coating formulation was prepared by dissolving 1.0% of sorbitol (Sigma, MO) in 3.7% of double distilled water and 0.4% of PEG 400 (Sigma, MO). […] The membranes were peeled off the surface, checked for cracks and flaws under a light microscope (X70) and their thickness was measured using a Micrometer (Ames, Mass.). […]
# The release studies were realized by placing the dissolution die in a USP dissolution apparatus II (Vanderkamp 600, VanKel Industries Inc.) containing 900 ml of water at 37° C., 100 rpm. […] The 100% release was determined by removing the membrane from the die and allowing the drug dissolution to be complete. The samples were analyzed by HPLC for testosterone concentration.
# [5] = Release of testosterone from osmotic pumps; assay type: physicochemical; settings: osmotic pump with (SBE)7m -β-CD vs. sugar mixture or HP-β-CD; FIG. 25
# Description: For the preparation of cores, physical mixtures of TS with (SBE)7m -β-CD, HP-β-CD or sugar (physical mixture of lactose and fructose, 1/1) each containing 10 mg TS were compressed at 1 ton/cm^2 for 60 sec using a Carver™ Laboratory Press with a 6.35 mm flat faced punch. The molar ratios of TS to (SBE)7m -β-CD in the physical mixtures ranged from 1:1 to 1:1.43 and that in the physical mixture with HP-β-CD ranged from 1:1 to 1:1.79. The physical mixtures of TS with the β-CD derivatives or sugar were prepared using a mortar and a pestle. The compressed tablet core was placed in a tablet die as described above. […]
# The dissolution and release rates of TS from core tablets (no membrane covering) or the osmotic pump devices (core tablets covered by a semipermeable membrane) were measured using a USP apparatus utilizing the paddle method. […] The amount of each osmotic pump agent, (SBE)7m -β-CD, HP-β-CD and sugar, released from the OPT was calculated by difference from the weight of the total ingredients released and the weight of the remaining released components at each sampling time in the study. […] The weight of the released osmotic agent was measured as a residual weight after evaporating and vacuum drying a 200 ml solution sample for 12 hr at 60° C. […]
smiles,measurement,setting,value
Cc1ccc(S(=O)(=O)NC(=O)NC2C3CCC(C)(C2O)C3(C)C)cc1 (stereo not shown) [glibomuride],bioavailability of complex vs. physical mixture,[1],two to three fold better
C[C@H]1C[C@@H]2[C@H]([C@@H](O)C[C@@]3(C)[C@H]2CC[C@]3(O)C(=O)CO)[C@@]2(C)C=CC(=O)C=C12 [methylprednisolone],"release profile, MP vs. SBE7 β-CD","[2]; 140 μm film, FIG. 2a, 2b",substantially the same release profiles
same,"release profile, physical mixture vs. freeze dried complex","[2]; 200 μm film, FIG. 3a, 3b",a slight difference was noted in the release profiles of the physical mixture versus the freeze dried complex
same,"release profile, physical mixture vs. preformed complex","[2]; MP:SBE7 β-CD 1:7 molar, 140 μm ethylcellulose/PEG film, FIG. 1, 2",release profile similar to or substantially similar to the former
same,effect of MP/SBE7 β-CD ratio on release,"[2]; film coated tablets, ratios 1/10, 1/7, 1/3, FIG. 7a-7d",decreasing the relative amount of SBE7 β-CD decreases the observed release profile for MP
same,"release profile, physical mixture vs. complex, uncoated core","[2]; no film, FIG. 6",The physical mixture exhibits substantially the same release profiles as the complex
same,"release characteristics, physical mixture vs. freeze dried complex","[2]; ratios 1/10, 1/7, 1/3, FIG. 7a-7d",substantially the same release characteristics
same,"release of MP, coat without pore forming agent",[3],MP is released from a tablet formulation
C[C@]12CC[C@H]3[C@@H](CCC4=CC(=O)CC[C@@]43C)[C@@H]1CC[C@@H]2O [testosterone],"release profile, physical mixture vs. freeze dried complex",[4],exhibited the same release profile as the respective freeze dried mixture
same,release from osmotic pumps,[5],released a greater amount of TS and at a more acceptable rate than the osmotic pumps containing the sugar mixture or HP-β-CD
